Laboratory results taken from paper PMC8126888 (RSC Medicinal Chemistry, 2020).
Read-outs that look alike come from different tables or passages of the source.

Key:
[1] = test system: Trypanosoma cruzi, Tulahuen CL2, beta-galactosidase strain; test: microbe, parasite or virus in culture
[2] = test system: primary peritoneal mouse macrophages (PMM); test: cells; details: Macrophage
[3] = test system: Leishmania infantum MHOM/MA(BE)/67/ITMAP263 intracellular amastigotes; test: microbe, parasite or virus in culture; details: Macrophage, in Mus musculus
[4] = in vitro; details: human, microsomes, intrinsic in vitro clearance, liver microsomes
[5] = physchem; details: HPLC, Ascentis Express RP Amide column
[6] = in vitro; details: mouse, microsomes, pH 7.4, Microsome Clint Mouse, intrinsic in vitro clearance, liver microsomes
[7] = in vitro; details: human
[8] = read-out: PMM pIC50 (converted)
[9] = read-out: L. inf. pIC50, intracellular amastigotes in PMM (converted), geometric mean of a minimum of two experiments ± standard error
[10] = pH 7.4, elog D, HPLC measured log D, pH 7.4
[11] = read-out: L. Inf. pIC50 (converted)
[12] = read-out: L. infantum MHOM/MA(BE)/67/ITMAP263 intracellular amastigotes IC50
[13] = MRC5, read-out: T. cruzi Tulahuen C4 (LacZ) IC50
[14] = read-out: L. Inf. pIC50, from L. infantum intracellular amastigote IC50 (converted)
[15] = read-out: L. infantum MHOM/MA(BE)/67/ITMAP263 intracellular amastigotes IC50, intracellular amastigotes
[16] = read-out: L. infantum MHOM/MA(BE)/67/ITMAP263 intracellular amastigotes IC50 (uM), intracellular amastigotes
[17] = MRC5, read-out: T. cruzi Tulahuen C4 (LacZ) IC50 (uM)

SMILES	IC50 ([2]; read-out: PMM IC50) [µM]	CC50 at 3 days [7] [µM]	IC50 [3, 11] [µM]	IC50 [3, 12] [µM]	IC50 [1, 13] [µM]	other results
O=C(Cn1ccnc1[N+](=O)[O-])NCc1ccccc1 [Benznidazole, reference compound]	–	–	–	–	–	IC50 ([1]; MRC5, […], reference drug, T. cruzi, 7 days): 2 to 5 µM
COc1ccccc1S(=O)(=O)N(Cc1ccccc1)Cc1ccccc1 [Compound 10]	–	–	–	–	–	IC50 [2, 8]: > 64.6 µM; IC50 [3, 9]: 0.331 µM
O=S(=O)(c1cc(F)ccc1F)N(Cc1ccc(F)cc1)Cc1ccc(F)cc1 [Compound 12]	–	–	–	–	–	IC50 [2, 8]: > 64.6 µM; IC50 [3, 9]: > 64.6 µM
N#Cc1ccccc1S(=O)(=O)N(Cc1ccccc1)Cc1ccccc1 [Compound 13]	–	–	–	–	–	IC50 [2, 8]: > 64.6 µM; microsomal CLint at 0.5 h, 0.5 µM ([4]; pH 7.4, Microsome Clint Human): 699 µL/min/mg; chromatographic logD [5, 10]: 4.3; IC50 [3, 9]: 11.2 µM
COc1ccc(C#N)cc1S(=O)(=O)N(Cc1ccccc1)Cc1ccccc1 [Compound 17]	–	–	–	–	–	IC50 [2, 8]: > 64.6 µM; microsomal CLint at 0.5 μM ([4]; pH 7.4, Microsome Clint Human): 304 µL/min/mg; chromatographic logD [5, 10]: 4.3; IC50 [3, 9]: 0.437 µM
COc1ccc(F)cc1S(=O)(=O)N(Cc1ccccc1)Cc1ccccc1 [Compound 18]	–	–	–	–	–	IC50 [2, 8]: > 64.6 µM; microsomal CLint at 0.5 μM ([4]; pH 7.4, Microsome Clint Human): 955 µL/min/mg; chromatographic logD [5, 10]: 4.7; IC50 [3, 9]: 1.38 µM
COc1ccc(Cl)cc1S(=O)(=O)N(Cc1ccccc1)Cc1ccccc1 [Compound 19]	–	–	–	–	–	IC50 [2, 8]: > 64.6 µM; microsomal CLint at 0.5 μM ([4]; pH 7.4, Microsome Clint Human): 407 µL/min/mg; microsomal CLint at 0.5 μM [6]: 1350 µL/min/mg; IC50 [3, 9]: 1.38 µM
COc1ccc(CN2CCOCC2)cc1S(=O)(=O)N(Cc1ccc(F)cc1)Cc1ccc(F)cc1 [Compound 24]	–	–	–	–	–	IC50 [2, 8]: > 64.6 µM; microsomal CLint at 0.5 h, 0.5 µM ([4]; pH 7.4, Microsome Clint Human): 49.4 µL/min/mg; microsomal CLint at 0.5 μM [6]: 3200 µL/min/mg; IC50 [3, 9]: 0.525 µM
COc1ccc(OC)c(S(=O)(=O)N(Cc2ccc(F)cc2)Cc2ccc(F)cc2)c1 [Compound 32]	–	–	–	–	–	IC50 [2, 8]: > 64.6 µM; chromatographic logD [5, 10]: 4.7; IC50 [3, 9]: 0.537 µM
COCCN(Cc1ccccc1)S(=O)(=O)c1cc(OC)ccc1OC [Compound 39]	–	–	–	–	–	IC50 [2, 8]: > 64.6 µM; microsomal CLint at 0.5 μM ([4]; pH 7.4, Microsome Clint,u Human, Table 2): 253 µL/min/mg; chromatographic logD [5, 10]: 3.5; IC50 [3, 9]: 2.09 µM
COc1ccc(Cl)cc1S(=O)(=O)N(CC(=O)N1CCN(C)CC1)Cc1ccccc1 [DNDI0003363387]	> 32	> 32	> 32	> 32	> 32	–
COc1ccc(OC)c(S(=O)(=O)N2CCCC2c2ccc(F)cc2)c1 (stereo not shown) [DNDI0003363388]	> 32	> 32	9.55	9.59	25.6	–
COc1ccc(Cl)cc1S(=O)(=O)N(CC(=O)N1CCCC1)Cc1ccccc1 [DNDI0003363389]	> 32	> 32	15.5	15.5	> 32	–
CC(=O)Nc1ccc(Cl)c(C(=O)NC(Cn2ccnc2)c2ccccc2)c1 (stereo not shown) [DNDI0003363391]	> 55.4	> 55.4	> 55.4	> 55.4	> 55.4	–
O=C(NC(Cn1ccnc1)c1ccccc1)c1ccc(-n2cnnn2)cc1 (stereo not shown) [DNDI0003363392]	> 55.4	> 55.4	> 49.4	> 49.4	9	–
COc1ccc(C)cc1S(=O)(=O)N(CC(=O)N1CCOCC1)Cc1ccccc1 [DNDI0003363393]	> 55.4	> 55.4	19.1	18.9	> 55.4	–
CCN(CC)C(=O)CN(Cc1ccccc1)S(=O)(=O)c1ccc(OC)c(OC)c1 [DNDI0003363394]	> 55.4	> 55.4	32.4	32.1	> 55.4	–
COc1ccc(C)cc1S(=O)(=O)N(CC(=O)Nc1ccccc1)Cc1ccccc1 [DNDI0003363395]	> 55.4	> 55.4	> 49.4	> 49.4	19.8	–
COc1ccc(C)cc1S(=O)(=O)N(CC(=O)NCc1ccc(Cl)cc1)Cc1ccccc1 [DNDI0003363396]	> 55.4	> 55.4	25.7	25.7	6.02	–
COc1ccc(C)cc1S(=O)(=O)N(CC(N)=O)Cc1ccccc1 [DNDI0003363397]	> 55.4	> 55.4	> 55.4	> 55.4	> 55.4	–

SMILES	IC50 ([2]; read-out: PMM IC50) [µM]	CC50 at 3 days [7] [µM]	IC50 [3, 11] [µM]	IC50 [3, 12] [µM]	IC50 [1, 13] [µM]	other results
COc1ccc(OC)c(S(=O)(=O)N2CCc3ccccc3C2)c1 [DNDI0003363398]	> 55.4	> 55.4	> 55.4	> 55.4	> 55.4	–
COc1ccc(C)cc1S(=O)(=O)N(CC(=O)O)Cc1ccccc1 [DNDI0003363399]	> 55.4	> 55.4	> 55.4	> 55.4	> 55.4	–
COc1ccc(S(=O)(=O)N(CC(=O)NC2CC2)Cc2ccccc2)cc1C [DNDI0003363400]	> 55.4	> 55.4	> 49.4	> 49.4	> 55.4	–
O=C(COc1ccc(Cl)cc1S(=O)(=O)NCc1ccccc1)N1CCOCC1 [DNDI0003363401]	> 55.4	> 55.4	> 55.4	> 55.4	> 55.4	–
COc1ccc(OC)c(S(=O)(=O)n2cc(C)nc2-c2ccccc2)c1 [DNDI0003363402]	> 55.4	> 55.4	> 55.4	> 55.4	> 55.4	–
COCCNc1ccc(S(=O)(=O)N(CCOC)Cc2ccccc2)cc1 [DNDI0003366102]	> 64	38.1	–	–	34.8	IC50 [3, 14]: 38.9 µM; IC50 [3, 15]: 38.6 µM
COc1ccc(OC)c(S(=O)(=O)N(Cc2ccccc2)C2CCN(C(C)=O)CC2)c1 [DNDI0003366132]	> 64	> 64	–	–	> 64	chromatographic logD ([5]; pH 7.4, eLogD, experimental): 3.1; IC50 [3, 14]: > 64 µM; IC50 [3, 15]: > 64 µM
CN(C)CCN(Cc1ccccc1)S(=O)(=O)c1ccccc1OC(F)(F)F [DNDI0003367256]	45.2	53.4	–	–	32	IC50 [3, 14]: 8.71 µM; IC50 [3, 15]: 8.64 µM
O=S1(=O)c2cc(F)ccc2OCCN1Cc1ccccc1 [DNDI0003368292]	> 64	> 64	–	–	48.9	IC50 [3, 14]: > 64 µM; IC50 [3, 15]: > 64 µM
COc1ncc(C#N)cc1S(=O)(=O)N(Cc1ccc(F)cc1)Cc1ccc(F)cc1 [DNDI0003369123]	> 64	> 64	–	–	8.4	chromatographic logD ([5]; pH 7.4, eLogD, experimental): 4.5; IC50 [3, 14]: 7.59 µM; IC50 [3, 15]: 7.6 µM
COCC1COc2ccc(F)cc2S(=O)(=O)N1Cc1ccccc1 (stereo not shown) [DNDI0003369451]	> 64	> 64	–	–	> 64	IC50 [3, 14]: > 64 µM; IC50 [3, 15]: > 64 µM
O=S1(=O)c2ccccc2OCC(Cc2ccccc2)N1Cc1ccccc1 (stereo not shown) [DNDI0003370081]	45.2	> 64	–	–	> 64	chromatographic logD ([5]; pH 7.4, eLogD, experimental): 5; IC50 [3, 14]: 33.1 µM; IC50 [3, 15]: 33.5 µM
O=S(=O)(c1cc(F)ccc1F)N(Cc1ccc(F)cc1)Cc1ccc(F)cc1 [DNDI0003371158]	> 64	> 64	–	–	> 64	IC50 [3, 14]: > 64 µM; IC50 [3, 15]: > 64 µM
O=S(=O)(c1cc(F)ccc1F)N(Cc1ccccc1)CC(O)c1ccc(F)cc1 (stereo not shown) [DNDI0003371159]	> 64	18.7	–	–	7.27	IC50 [3, 14]: 33.1 µM; IC50 [3, 15]: 33.1 µM
COCCN(Cc1ccccc1)S(=O)(=O)c1cc(C(=O)N2CCOCC2)ccc1OC [DNDI0003392126]	–	> 64	–	–	–	IC50 ([2]; read-out: PMM IC50 (uM)): > 64 µM; IC50 [3, 14]: 43.7 µM; IC50 [3, 16]: 44 µM; IC50 [1, 17]: > 64 µM
COCCN(Cc1ccccc1)S(=O)(=O)c1cc(C(=O)N2CCNCC2)ccc1OC [DNDI0003392127]	–	> 64	–	–	–	IC50 ([2]; read-out: PMM IC50 (uM)): > 64 µM; IC50 [3, 14]: 36.3 µM; IC50 [3, 16]: 35.9 µM; IC50 [1, 17]: 13.4 µM
COc1ccc(Cl)cc1S(=O)(=O)N(CC(=O)N1CCOCC1)Cc1ccccc1 [SCYX0001379806]	> 32	> 32	> 32	> 32	> 32	–
CC(=O)O[C@H]1C(=O)[C@@]2(C)[C@H]([C@H](OC(=O)c3ccccc3)[C@]3(O)C[C@H](OC(=O)[C@H](O)[C@@H](NC(=O)c4ccccc4)c4ccccc4)C(C)=C1C3(C)C)[C@]1(OC(C)=O)CO[C@@H]1C[C@@H]2O [paclitaxel, reference compound]	–	< 0.01	–	–	–	–
CC[C@]1(O)C[C@@H]2CN(CCc3c([nH]c4ccccc34)[C@@](C(=O)OC)(c3cc4c(cc3OC)N(C)[C@H]3[C@@](O)(C(=O)OC)[C@H](OC(C)=O)[C@]5(CC)C=CCN6CC[C@]43[C@@H]65)C2)C1 [vinblastine, reference compound]	–	< 0.01	–	–	–	–
